Laboratory results reported in PubChem BioAssay (NCI).
Values joined by “and” are separate entries in the source; they are usually repeats but may differ in a detail not shown here. Identical values can stand only once.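 In this assay, cells in 96-well plates receive the compound at five concentrations for 48 hours. Endpoints are linearly interpolated between the surrounding concentrations. GI50 marks 50% less growth. The concentration for full growth arrest is given as TGI.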

What was measured:
Assay in all cases: growth of human tumour cells (NCI), 48 h
HCC-2998 colon = test system: HCC-2998 colon
MOLT-4 leukemia = test system: MOLT-4 leukemia
HOP-92 NSCLC = test system: HOP-92 NSCLC
HCT-15 colon = test system: HCT-15 colon
BT-549 breast = test system: BT-549 breast
HOP-62 NSCLC = test system: HOP-62 NSCLC
OVCAR-4 ovarian = test system: OVCAR-4 ovarian
786-0 renal = test system: 786-0 renal
HT29 colon = test system: HT29 colon
UO-31 renal = test system: UO-31 renal

SMILES | TGI (HCC-2998 colon) | TGI (MOLT-4 leukemia) | TGI (HOP-92 NSCLC) | TGI (HCT-15 colon) | TGI (BT-549 breast) | TGI (HOP-62 NSCLC) | TGI (OVCAR-4 ovarian) | TGI (786-0 renal) | TGI (HT29 colon) | TGI (UO-31 renal) | GI50 (HCC-2998 colon) | GI50 (HOP-92 NSCLC) | GI50 (HCT-15 colon) | GI50 (BT-549 breast) | GI50 (HOP-62 NSCLC) | GI50 (OVCAR-4 ovarian) | GI50 (786-0 renal) | GI50 (HT29 colon) | GI50 (UO-31 renal) | GI50 (MOLT-4 leukemia)
CC(CO)[C@H]1OC(=O)C=C2[C@@]13O[C@@H]3[C@H]1OC(=O)[C@@]3(C)[C@H]4O[C@H]4C[C@@]2(C)[C@@H]13 (some centres not stated) | 8.58 µM | 3.65 µM | > 26.9 µM | > 31 µM | 8.2 µM | > 100 µM | > 24.3 µM | > 28.1 µM | 20.7 µM | 6.41 µM | – | – | – | – | – | – | – | – | – | –
Nc1c(C(=O)Nc2ccc([As](=O)(O)O)cc2)cnc2nnnn12 | > 100 µM | > 100 µM | > 100 µM | > 100 µM | > 100 µM | > 100 µM | > 100 µM | > 100 µM | > 100 µM | > 100 µM | – | – | – | – | – | – | – | – | – | –
Cc1ccc(C(=O)/C(=C/c2ccc([N+](=O)[O-])cc2)S(=O)Cc2ccccc2)cc1 (configuration not stated) | 3.29 µM | – | 3.22 µM | 2.59 µM | 3.49 µM | 4.46 µM | 2.78 µM | 2.81 µM | 2.44 µM | 2.55 µM | 1.78 µM | 1.41 µM | 1.07 µM | 1.79 µM | 2.02 µM | 1.35 µM | 1.44 µM | 1 µM | 1.17 µM | –
CC(=O)c1cccc(N(/C=C/C(=O)C(F)(F)F)CC(=O)c2ccc(Cl)cc2)c1 | > 100 µM | > 100 µM | > 100 µM | > 100 µM | > 100 µM | > 100 µM | > 100 µM | > 100 µM | > 100 µM | > 100 µM | > 100 µM | > 100 µM | > 100 µM | > 100 µM | > 100 µM | > 100 µM | > 100 µM | > 100 µM | > 100 µM | > 100 µM
COc1ccc(C(=O)N2c3ccccc3Sc3ccccc32)c(F)c1 | > 100 µM | > 100 µM | 59.7 µM | > 100 µM | > 100 µM | > 100 µM | > 100 µM | > 100 µM | 43.3 µM | > 100 µM | 2.38 µM | 0.238 µM | 0.419 µM | 0.676 µM | 0.968 µM | 2.01 µM | 0.675 µM | 0.38 µM | 3.78 µM | 0.715 µM
CN1C2CC(C#N)C1C=CC2=O (configuration not stated) | 51.8 µM and > 100 µM | 68.7 µM and > 100 µM | 31.4 µM and > 100 µM | 40.7 µM and > 100 µM | 75.1 µM and > 100 µM | 85.1 µM and > 100 µM | – | 42.6 µM and > 100 µM | 59.5 µM and > 100 µM | 24.1 µM and > 100 µM | 19.5 µM and > 100 µM | 14.5 µM and 62.3 µM | 13.6 µM and > 100 µM | 38.7 µM and > 100 µM | 27.6 µM and > 100 µM | – | 17.4 µM and > 100 µM | 17.5 µM and 83.8 µM | 11.4 µM and > 100 µM | 15.7 µM and > 100 µM
Cc1ccc(C(=O)Nc2ccc(CN3CCN(C)CC3)c(C(F)(F)F)c2)cc1C#Cc1cnc(N)c2ccc(F)cc12 | 0.798 µM | 0.671 µM | 0.944 µM | 0.456 µM | 4.33 µM | 3.44 µM | 2.32 µM | 0.731 µM | 0.865 µM | 0.748 µM | 0.377 µM | 0.18 µM | 0.112 µM | 1.31 µM | 0.753 µM | 0.329 µM | 0.305 µM | 0.133 µM | 0.121 µM | 0.0921 µM
Cc1cc2c(C(C)C)c(O)c(O)c(C=Nc3cc(C(F)(F)F)ccc3Cl)c2c(O)c1-c1c(C)cc2c(C(C)C)c(O)c(O)c(C=Nc3cc(C(F)(F)F)ccc3Cl)c2c1O | > 100 µM | – | 53.5 µM | > 100 µM | 77.6 µM | > 100 µM | – | > 100 µM | 79.3 µM | > 100 µM | – | – | – | – | – | – | – | – | – | –
O=C(O)c1cc[c]([Hg][S]c2ncnc3nc[nH]c23)cc1 | – | 15.3 µM | 23 µM | 27.2 µM | 21.6 µM | 26.1 µM | 28.9 µM | 21.9 µM | 21.7 µM | 17 µM | – | 2.21 µM | 11.2 µM | 8.12 µM | 10.7 µM | 10.3 µM | 5.83 µM | 7.27 µM | 4.79 µM | –
COc1cc2cc(Oc3ccc(NC(=O)c4cccc(C(F)(F)F)c4)cc3)c(C)nc2cc1OC | > 100 µM | > 100 µM | 33.2 µM | > 100 µM | > 100 µM | > 100 µM | > 100 µM | > 100 µM | > 100 µM | > 100 µM | 8.03 µM | 3.08 µM | 4.65 µM | 3.31 µM | 21.6 µM | 3.68 µM | 5.31 µM | 6.65 µM | 4.59 µM | 4.72 µM
CC1(C)N=C(N)N=C(N)N1c1ccc(CCc2ccccc2)c(Cl)c1 | 13.3 µM | 13.5 µM | 9.51 µM | > 100 µM | 12.5 µM | 12.4 µM | 13.1 µM | 14.6 µM | 12.7 µM | > 100 µM | 0.361 µM | 1.14 µM | 2.55 µM | 1.11 µM | 0.268 µM | 0.52 µM | 0.179 µM | 0.0531 µM | 8.12 µM | 0.0648 µM
COC(=O)c1ccc2c(c1)C(NC(C)=O)CCc1cc(OC)c(OC)c(OC)c1-2 (configuration not stated) | 0.706 µM | 51.6 µM | 13.1 µM | > 44.3 µM | 78.3 µM | 52.4 µM | > 100 µM | 93.3 µM | 1.28 µM | > 81 µM | – | – | – | – | – | – | – | – | – | –
CCN(c1ccc(CO)c(Cl)c1)C(C)c1ccc(F)cc1 (configuration not stated) | 32.8 µM | 40 µM | – | 28.9 µM | 29.6 µM | 30.2 µM | 20.7 µM | 30.4 µM | 30 µM | 29.1 µM | 16.6 µM | – | 13.7 µM | 15.5 µM | 16.2 µM | 7.97 µM | 16.4 µM | 15.5 µM | 15.3 µM | 19.3 µM
CC(C)c1ccc2nc3ccc(C(=O)NCCN(C)C)cn3c(=O)c2c1 | 31.7 µM | 49.8 µM | – | 28.5 µM | 29.6 µM | 31.4 µM | 56.5 µM | 27.8 µM | 24.5 µM | 29.5 µM | – | – | – | – | – | – | – | – | – | –
Clc1ccccc1NN(Cc1ccccn1)c1ccccc1Cl | – | 41.9 µM | 30.5 µM | > 100 µM | 56 µM | 34.3 µM | 37.2 µM | 31.6 µM | 29.4 µM | 34.8 µM | – | – | – | – | – | – | – | – | – | –
COc1ccc(-n2nnc3c(sc4ccccc43)c2=O)cc1 | > 100 µM | > 100 µM | – | > 100 µM | > 100 µM | – | – | > 100 µM | – | – | > 100 µM | – | > 100 µM | > 100 µM | – | – | 3.61 µM | – | – | > 100 µM
Nc1cc(N)c2nc(-c3ccccc3)c(Oc3ccc(F)cc3)nc2c1 | – | > 100 µM | 29.8 µM | > 100 µM | 34.8 µM | 49.5 µM | 35.2 µM | 36.3 µM | 50.7 µM | > 100 µM | – | 12.2 µM | 36 µM | 15 µM | 21.5 µM | 8.32 µM | 15.7 µM | 22.7 µM | 29.6 µM | 6.58 µM
COC(=O)C1=C(OC(=O)c2ccc(Cl)cc2)C(C(=O)OC)[C@@]2(O)[C@@H](C(=O)OC)C(c3ccccc3C(F)(F)F)C[C@@H]1[C@@H]2C(=O)OC (some centres not stated) | > 100 µM | 7.86 µM | > 100 µM | 14.6 µM | 63.6 µM | > 100 µM | – | > 100 µM | > 100 µM | 31.6 µM | 5.54 µM | 6.27 µM | 2.87 µM | 4.16 µM | 9.24 µM | – | 4.86 µM | 3.54 µM | 12.6 µM | 2.7 µM
COc1ccc(C2SC(N)=Nc3c2c(C)nn3C(=O)c2ccc(Cl)cc2)cc1OC (configuration not stated) | > 10 µM | > 10 µM | > 10 µM | > 10 µM | > 10 µM | > 10 µM | > 10 µM | > 10 µM | > 10 µM | – | – | – | – | – | – | – | – | – | – | –
C[n+]1cc2c3c(ccc2c2ccc4cc5c(cc4c21)OCO5)OCO3 | 2.92 µM | 0.697 µM | 2.05 µM | 2.29 µM | 2.08 µM | 1.44 µM | – | 2.26 µM | 1.87 µM | 1.7 µM | 1.47 µM | 0.584 µM | 0.631 µM | 0.784 µM | 0.349 µM | – | 1.02 µM | 0.507 µM | 0.359 µM | 0.3 µM
CON(C)C(=O)C(C)NC(=O)OCc1ccccc1 (configuration not stated) | > 100 µM | > 100 µM | > 100 µM | > 100 µM | > 100 µM | > 100 µM | – | > 100 µM | > 100 µM | > 100 µM | – | – | – | – | – | – | – | – | – | –
COc1ccc(OC)c(-c2cc(-c3ccccc3)nn2-c2ccc(S(=O)(=O)NC(C)=O)cc2)c1 | 13.8 µM | > 100 µM | 38.9 µM | 10.2 µM | 38.6 µM | – | – | 23.4 µM | – | > 100 µM | 3.08 µM | 14.4 µM | 3.72 µM | 16.2 µM | – | – | 10.8 µM | – | 25.3 µM | 6.57 µM
CC(C)(C)OC(=O)NCC(C#N)CNC(=O)OC(C)(C)C | > 100 µM | > 100 µM | > 100 µM | > 100 µM | > 100 µM | > 100 µM | > 100 µM | > 100 µM | – | > 100 µM | – | – | – | – | – | – | – | – | – | –
